According to patent US20240180836A1, “Cationic Lipid Compound and Composition for Delivery of Nucleic Acids and Use Thereof” (Shenzhen Rhegen Biotechnology Co., Ltd., priority 2022, published 2024):

Assay: In vivo metabolic rates of cationic lipids (cationic lipid content in liver by HPLC-CAD)
Conditions: 5 ug EPO-mRNA-lipid nanoparticles, tail vein injection, female Balb/c mice, 1 h to 48 h after injection, compared with DLin-MC3-DMA
Experimental: 5 ug EPO-mRNA-lipid nanoparticles were injected via tail vein injection in 6-8 week old female Balb/c mice, prepared as in Example 13. After injection, the mice were executed at different time points (1 h, 3 h, 6 h, 24 h, 48 h after injection). The livers were taken and crushed, and the lipids were extracted from them with chloroform in three times, and the extracts were finally combined. After spin distillation to remove chloroform, methanol was added to dissolve the sample, and the cationic lipid content therein was analyzed by HPLC-CAD (Thermo Vanquish), with an Acclaim™ C18 column as the analytical column, a 0.5% TEAA aqueous solution as mobile phase A and a 0.5% TEAA methanol solution as mobile phase B. The sample was eluted according to the gradient in Table 2 below.

Compound: CCCCCCCCCSC(=O)CCCCCCCN(CCO)CCCCCCCC(=O)SC(CCCCCCCC)CCCCCCCC [Compound 9]
- In vivo metabolism rate of cationic lipid (FIG. 3): metabolized in vivo faster than DLin-MC3-DMA
